“Also recorded” adds a separate entry of the source.
Assays:
[1] = Off-target binding observed on PET images; assay type: in vivo, human; conditions: observed on PET image
Method: (§1) PET imaging was performed using an Eminence STARGATE PET scanner (Shimadzu, Kyoto, Japan). After intravenous injection of ^18F-THK5351 (185 MBq), dynamic PET images were obtained for 60 min. acquisition matrix is 128×128×79 and voxels size is 2×2×2.6 mm. ^18F-THK5351 was synthesized. MRI was performed on all participants. T1 weighted MR images were obtained using a SIGNA 1.5-Tesla machine (General Electric, Milwaukee, Wis.). In T1-weighted MRI, a 3D volumetric acquisition of a T1-weighted gradient echo sequence produced a gapless series of thin axial sections by using a vascular TOF SPGR sequence (echo time/repetition time, 2.4/50 ms; flip angle, 45°; acquisition matrix, 256×256; 1 excitation; field of view, 22 cm; slice thickness, 2.0 mm).
(§2) AV-1451 data were downloaded from ADNI with series description “AV1451 Coreg, Avg, Std Img and Vox Siz, Uniform Resolution”. An intravenous injection of 10 mCi ^18F-AV-1451 (370 MBq) is followed by a saline flush. At approximately 75 minutes following injection, a continuous 30-minute brain scan (6 frames of 5-minute duration) was performed after a CT or transmission scan for attenuation correction. PET imaging was performed using GEMINI TF TOF 16 (Philips Medical Systems), with 6 frames; acquisition matrix 128×128×90; pixel spacing 2×2 mm; slice thickness 2 mm.
Standardized uptake value (SUV) images were obtained by normalizing tissue radioactivity concentration by injected dose and bodyweight. Estimates of tau deposition were determined for THK53151 with the 40-60 min SUV and for AV1451 with for the 80-100 min SUV. Standard SUVR was generated by using cerebellar cortex as reference. To control the variation of SUVR measures in THK5351 and AV1451 PET caused by the off-target binding in reference region, each subject's SUV images were first transferred into standardized SUVP images, using the Peak-alignment method (as described above). […]

[2] = test system: tau; test: Tau PET tracer binding, SUVR with cerebellar cortex as reference, AD patients and NL subjects; assay type: in vivo, human; conditions: mean (SD); for GMSUVR (Cerebral GM tracer retention) / WMSUVR (Cerebral WM tracer retention): all subjects of the tracer (AD and NL)
Method: Subjects come from two sources. 18 subjects (9 AD patients, and 9 healthy elderly study participants) underwent ^18F-THK5351 PET scans from the memory clinic of Tohoku University Hospital. ^18F-AV-1451 scans were obtained from the ADNI (Alzheimer's Disease Neuroimaging Initiative) database (adni.loni.usc.edu). 32 Subjects (20 NL and 12 AD) with ^18F-AV-1451 were selected from ADNI, that were matched to the age and MMSE in participants of the THK5351 group.
as §1, §2
Using Free-Surfer (V. 5.1, http://surfer.nmr.mgh.harvard.edu) ROI's were determined for the cerebral gray and white matter, the cerebellar hemisphere gray matter, caudate nuclear, thalamus, ponds and subcortical regions (including frontal, parietal, occipital, medial temporal cortex and lateral temporal lobe). MRI T1 images were coregistered to the mean PET images for each participant by using statistical parametric-mapping software (SPM12; Wellcome Department of Imaging Neuroscience, UCL, London, UK).
Standardized uptake value (SUV) images were obtained by normalizing tissue radioactivity concentration by injected dose and bodyweight. Estimates of tau deposition were determined for THK53151 with the 40-60 min SUV and for AV1451 with for the 80-100 min SUV. Standard SUVR was generated by using cerebellar cortex as reference. To control the variation of SUVR measures in THK5351 and AV1451 PET caused by the off-target binding in reference region, each subject's SUV images were first transferred into standardized SUVP images, using the Peak-alignment method (as described above). In order to compare the regional SUV distribution patterns on group level, the whole brain probability density function (PDFwb) of SUVP were computed for each subject by normalizing the histograms of a subject's SUVP with the total number of intracranial voxels of that subject. Finally, the group average whole brain probability density function (PDFwb) were computed by averaging the individual subjects' PDFwb within 4 compare groups (2 tracers×2 conditions). One important advantage of SUVP over SUVR is that the Peak-alignment method standardized the range of whole brain SUV (marked in FIG. 2) into [−3,3] approximately, regardless of tracer or disease condition, thus allowing universal cutoff for different tracers, while SUVR cutoffs are tracer-dependent (e.g. 1.5 for THK and 1.19 for AV1451). Here, 1.5 is used for SUVP cutoff, representing 1.5 times std from whole brain mode. The positive binding percentage: PBP=(number of positive bring voxels)/(total number of voxels), are computed for both SUVP and SUVR in different brain tissues. […]

Row | regions with off-target binding ([1]; listed as AV1451) | SMILES | regions with off-target binding [1] | SUVR, Basal ganglia ([2]; AD patients) | SUVR, Cerebral GM ([2]; AD patients) | SUVR, Cerebral WM ([2]; AD patients) | SUVR, Frontal cortex ([2]; AD patients) | SUVR, Occipital cortex ([2]; AD patients) | SUVR, Parietal cortex ([2]; AD patients) | SUVR, Temporal cortex ([2]; AD patients) | SUVR, Basal ganglia ([2]; NL subjects) | SUVR, Cerebral GM ([2]; NL subjects) | SUVR, Cerebral WM ([2]; NL subjects) | SUVR, Frontal cortex ([2]; NL subjects) | SUVR, Occipital cortex ([2]; NL subjects) | SUVR, Parietal cortex ([2]; NL subjects) | SUVR, Temporal cortex ([2]; NL subjects) | GMSUVR (Cerebral GM tracer retention) [2] | WMSUVR (Cerebral WM tracer retention) [2]
1 | – | CNc1ccc(-c2ccc3cc(OC[C@H](O)CF)ccc3n2)cn1 [THK5351] | ponds and Amygdala; also recorded: cerebral white matter and basal ganglia region | 2.62(.26)^ | 1.55(.16)^+ | 1.78(.14)^+ | 1.38(.18) | 1.42(.16)^+ | 1.46(.12) | 1.88(.22)*^+ | 2.64(.31) | 1.39(.20) | 1.56(.20) | 1.32(.20) | 1.22(.13) | 1.30(.24) | 1.57(.21) | 1.47(0.19) | 1.67(0.20)
2 | cerebellum | [18F]c1ccc(-c2ccc3c(c2)[nH]c2ccncc23)cn1 [AV-1451] | choroidal plexus and substantia nigra; also recorded: cerebral white matter and basal ganglia region | 1.30(.10) | 1.24(.25)^+ | 1.27(.18) | 1.18(.23) | 1.17(.13) | 1.25(.30) | 1.41(.35)*^+ | 1.30(.09) | 1.09(.09) | 1.18(.09) | 1.06(.07) | 1.09(.09) | 1.07(.10) | 1.18(.16) | 1.15(0.18) | 1.21(0.13)

Source: patent publication US10945685B2, “System and method for normalizing standardized uptake values in brain positron emission tomography (PET) images” (New York University, priority 2018, dated 2021)
